{
  "source": "PubChem BioAssay (NCI)",
  "test_in_all_cases": "growth of human tumour cells (NCI), 48 h",
  "key": {"[1]": {"test_system": "NCI/ADR-RES ovarian"}, "[2]": {"test_system": "DU-145 prostate"}, "[3]": {"test_system": "HCC-2998 colon"}, "[4]": {"test_system": "HCT-15 colon"}, "[5]": {"test_system": "RPMI-8226 leukemia"}, "[6]": {"test_system": "PC-3 prostate"}, "[7]": {"test_system": "786-0 renal"}, "[8]": {"test_system": "MOLT-4 leukemia"}, "[9]": {"test_system": "M14 melanoma"}, "[10]": {"test_system": "BT-549 breast"}, "[11]": {"test_system": "A498 renal"}, "[12]": {"test_system": "CAKI-1 renal"}, "[13]": {"test_system": "NCI-H522 lung"}, "[14]": {"test_system": "OVCAR-4 ovarian"}, "[15]": {"test_system": "NCI-H226 lung"}, "[16]": {"test_system": "HOP-92 NSCLC"}, "[17]": {"test_system": "TK-10 renal"}, "[18]": {"test_system": "KM12 colon"}, "[19]": {"test_system": "CCRF-CEM leukemia"}, "[20]": {"test_system": "UO-31 renal"}, "[21]": {"test_system": "SK-OV-3 ovarian"}, "[22]": {"test_system": "SR leukemia"}, "[23]": {"test_system": "COLO 205 colon"}, "[24]": {"test_system": "SK-MEL-2 melanoma"}, "[25]": {"test_system": "MDA-MB-435"}, "[26]": {"test_system": "SW-620 colon"}, "[27]": {"test_system": "T-47D breast"}, "[28]": {"test_system": "U251 CNS"}, "[29]": {"test_system": "HL-60(TB) leukemia"}, "[30]": {"test_system": "UACC-257 melanoma"}, "[31]": {"test_system": "ACHN renal"}, "[32]": {"test_system": "HOP-62 NSCLC"}},
  "note": "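Step 1: Grow cells in 96-well plates. Step 2: Expose to compound for 48 hours at 5 concentrations. Step 3: Interpolate endpoints linearly; if unreached, use highest concentration. Here, GI50 denotes the concentration required for 50% inhibition of growth. At the TGI there is no net growth.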",
  "data": [
    {"molecule": "C[C@H](C(=O)N[C@@H](Cc1ccc(-c2ccccc2)cc1)C(=O)NC1CC(C)(C)NC(C)(C)C1)c1ccc(-c2ccccc2)c(F)c1", "values": [
      {"measurement": "GI50", "setting": "[1]", "value": 1880, "unit": "nM"},
      {"measurement": "TGI", "setting": "[1]", "value": 4470, "unit": "nM"},
      {"measurement": "GI50", "setting": "[2]", "value": 377, "unit": "nM"},
      {"measurement": "TGI", "setting": "[2]", "value": 1540, "unit": "nM"},
      {"measurement": "GI50", "setting": "[3]", "value": 813, "unit": "nM"},
      {"measurement": "TGI", "setting": "[3]", "value": "> 100000", "unit": "nM"}
    ]},
    {"molecule": "COc1ccc2nc3cc(Cl)ccc3c(NCCN)c2c1", "values": [
      {"measurement": "GI50", "setting": "[4]", "value": 1870, "unit": "nM"},
      {"measurement": "TGI", "setting": "[4]", "value": 3900, "unit": "nM"},
      {"measurement": "GI50", "setting": "[5]", "value": 2040, "unit": "nM"},
      {"measurement": "TGI", "setting": "[5]", "value": 5070, "unit": "nM"},
      {"measurement": "GI50", "setting": "[6]", "value": 1720, "unit": "nM"},
      {"measurement": "TGI", "setting": "[6]", "value": 3380, "unit": "nM"},
      {"measurement": "GI50", "setting": "[7]", "value": 1630, "unit": "nM"},
      {"measurement": "TGI", "setting": "[7]", "value": 3050, "unit": "nM"},
      {"measurement": "GI50", "setting": "[8]", "value": 1250, "unit": "nM"},
      {"measurement": "TGI", "setting": "[8]", "value": 3680, "unit": "nM"},
      {"measurement": "GI50", "setting": "[9]", "value": 1820, "unit": "nM"},
      {"measurement": "TGI", "setting": "[9]", "value": 3440, "unit": "nM"},
      {"measurement": "GI50", "setting": "[2]", "value": 1530, "unit": "nM"},
      {"measurement": "TGI", "setting": "[2]", "value": 2920, "unit": "nM"},
      {"measurement": "GI50", "setting": "[10]", "value": 1810, "unit": "nM"},
      {"measurement": "TGI", "setting": "[10]", "value": 3390, "unit": "nM"},
      {"measurement": "GI50", "setting": "[11]", "value": 11700, "unit": "nM"},
      {"measurement": "TGI", "setting": "[11]", "value": 23900, "unit": "nM"},
      {"measurement": "GI50", "setting": "[12]", "value": 1650, "unit": "nM"},
      {"measurement": "TGI", "setting": "[12]", "value": 3060, "unit": "nM"},
      {"measurement": "GI50", "setting": "[13]", "value": 1730, "unit": "nM"},
      {"measurement": "TGI", "setting": "[13]", "value": 3560, "unit": "nM"},
      {"measurement": "GI50", "setting": "[14]", "value": 1610, "unit": "nM"},
      {"measurement": "TGI", "setting": "[14]", "value": 3020, "unit": "nM"},
      {"measurement": "GI50", "setting": "[15]", "value": 4750, "unit": "nM"},
      {"measurement": "TGI", "setting": "[15]", "value": "> 100000", "unit": "nM"},
      {"measurement": "GI50", "setting": "[16]", "value": 1470, "unit": "nM"},
      {"measurement": "TGI", "setting": "[16]", "value": 2950, "unit": "nM"},
      {"measurement": "GI50", "setting": "[17]", "value": 1760, "unit": "nM"},
      {"measurement": "TGI", "setting": "[17]", "value": 3180, "unit": "nM"},
      {"measurement": "GI50", "setting": "[18]", "value": 1670, "unit": "nM"},
      {"measurement": "TGI", "setting": "[18]", "value": 3460, "unit": "nM"},
      {"measurement": "GI50", "setting": "[19]", "value": 1420, "unit": "nM"},
      {"measurement": "TGI", "setting": "[19]", "value": 5390, "unit": "nM"},
      {"measurement": "GI50", "setting": "[20]", "value": 1500, "unit": "nM"},
      {"measurement": "TGI", "setting": "[20]", "value": 2950, "unit": "nM"},
      {"measurement": "GI50", "setting": "[21]", "value": 1810, "unit": "nM"},
      {"measurement": "TGI", "setting": "[21]", "value": 3260, "unit": "nM"},
      {"measurement": "GI50", "setting": "[22]", "value": 1440, "unit": "nM"},
      {"measurement": "TGI", "setting": "[22]", "value": 5400, "unit": "nM"},
      {"measurement": "GI50", "setting": "[23]", "value": 1530, "unit": "nM"},
      {"measurement": "TGI", "setting": "[23]", "value": 3140, "unit": "nM"},
      {"measurement": "GI50", "setting": "[24]", "value": 14500, "unit": "nM"},
      {"measurement": "TGI", "setting": "[24]", "value": 31200, "unit": "nM"},
      {"measurement": "GI50", "setting": "[25]", "value": 1760, "unit": "nM"},
      {"measurement": "TGI", "setting": "[25]", "value": 3360, "unit": "nM"},
      {"measurement": "GI50", "setting": "[26]", "value": 1450, "unit": "nM"},
      {"measurement": "TGI", "setting": "[26]", "value": 3250, "unit": "nM"},
      {"measurement": "GI50", "setting": "[27]", "value": 1830, "unit": "nM"},
      {"measurement": "TGI", "setting": "[27]", "value": 3590, "unit": "nM"},
      {"measurement": "GI50", "setting": "[28]", "value": 1710, "unit": "nM"},
      {"measurement": "TGI", "setting": "[28]", "value": 3090, "unit": "nM"},
      {"measurement": "GI50", "setting": "[29]", "value": 2160, "unit": "nM"},
      {"measurement": "TGI", "setting": "[29]", "value": 4670, "unit": "nM"},
      {"measurement": "GI50", "setting": "[30]", "value": 18600, "unit": "nM"},
      {"measurement": "TGI", "setting": "[30]", "value": 33300, "unit": "nM"},
      {"measurement": "GI50", "setting": "[31]", "value": 1580, "unit": "nM"},
      {"measurement": "TGI", "setting": "[31]", "value": 3170, "unit": "nM"},
      {"measurement": "GI50", "setting": "[32]", "value": 1580, "unit": "nM"},
      {"measurement": "TGI", "setting": "[32]", "value": 3030, "unit": "nM"}
    ]}
  ]
}
